Values after ≈ are worked out from the molar mass of the structure shown.
Tests used:
Pseudomonas aeruginosa [1] = test: Antibacterial activity against Pseudomonas aeruginosa by twofold dilution method; assay type: functional
Staphylococcus aureus [2] = test: Antibacterial activity against Staphylococcus aureus by twofold dilution method; assay type: functional
[3] = test system: Salmonella enterica subsp. enterica; test: Antibacterial activity against Salmonella typhi by twofold dilution method; assay type: functional, Salmonella enterica subsp. enterica serovar Typhi
Escherichia coli [4] = test: Antibacterial activity against Escherichia coli by twofold dilution method; assay type: functional
Candida albicans [5] = test: Antifungal activity against Candida albicans by twofold dilution method; assay type: functional
Candida = test: Antifungal activity against Candida 51 by twofold dilution method; assay type: functional
Rhizopus [6] = test: Antifungal activity against Rhizopus sp. by twofold dilution method; assay type: functional
Aspergillus niger [7] = test: Antifungal activity against Aspergillus niger by twofold dilution method; assay type: functional
Aspergillus flavus [8] = test: Antifungal activity against Aspergillus flavus by twofold dilution method; assay type: functional
Cryptococcus neoformans [9] = test: Antifungal activity against Cryptococcus neoformans by twofold dilution method; assay type: functional
Staphylococcus aureus [10] = test: Ratio of MIC for drug to MIC for Ciprofloxacin against Staphylococcus aureus; assay type: functional
[11] = test system: Salmonella enterica subsp. enterica; test: Ratio of MIC for drug to MIC for Ciprofloxacin against Salmonella typhi; assay type: functional, Salmonella enterica subsp. enterica serovar Typhi
Escherichia coli [12] = test: Ratio of MIC for drug to MIC for Ciprofloxacin against Escherichia coli; assay type: functional
Pseudomonas aeruginosa [13] = test: Ratio of MIC for drug to MIC for Ciprofloxacin against Pseudomonas aeruginosa; assay type: functional
Rhizopus [14] = test: Ratio of MIC for drug to MIC for Amphotericin B against Rhizopus sp.; assay type: functional
Aspergillus flavus [15] = test: Ratio of MIC for drug to MIC for Amphotericin B against Aspergillus flavus; assay type: functional
Candida albicans [16] = test: Ratio of MIC for drug to MIC for Amphotericin B against Candida albicans; assay type: functional
Aspergillus niger [17] = test: Ratio of MIC for drug to MIC for Amphotericin B against Aspergillus niger; assay type: functional
Cryptococcus neoformans [18] = test: Ratio of MIC for drug to MIC for Amphotericin B against Cryptococcus neoformans; assay type: functional
[19] = Pseudomonas aeruginosa, read-out: MIC
[20] = Staphylococcus aureus, read-out: MIC
[21] = Salmonella enterica, read-out: MIC
[22] = Escherichia coli, read-out: MIC
[23] = Aspergillus niger, read-out: MIC
[24] = Aspergillus flavus, read-out: MIC
[25] = Cryptococcus neoformans, read-out: MIC
[26] = Candida albicans, read-out: MIC

SMILES | MIC (Pseudomonas aeruginosa [1]; [19]) [µg/mL] | MIC (Staphylococcus aureus [2]; [20]) [µg/mL] | MIC [3, 21] [µg/mL] | MIC (Escherichia coli [4]; [22]) [µg/mL] | MIC (Rhizopus [6]; Rhizopus, read-out: MIC) [µg/mL] | MIC (Aspergillus niger [7]; [23]) [µg/mL] | MIC (Aspergillus flavus [8]; [24]) [µg/mL] | MIC (Cryptococcus neoformans [9]; [25]) [µg/mL] | MIC (Candida albicans [5]; [26]) [µg/mL] | MIC (Candida; Candida, 51, read-out: MIC) [µg/mL] | also measured
Cc1ccc(C2OC(c3ccc(C)cc3)C(C)C(=NOCc3ccccc3)C2C)cc1 (stereo in doubt; 7d1) | 12.5 (≈ 30.2 µM) | 12.5 (≈ 30.2 µM) | 25 (≈ 60.5 µM) | 25 (≈ 60.5 µM) | 50 (≈ 121 µM) | 50 (≈ 121 µM) | 50 (≈ 121 µM) | 50 (≈ 121 µM) | – | – | MIC (Candida albicans [5]): 25 µg/mL (≈ 60.5 µM); MIC (Candida): 50 µg/mL (≈ 121 µM); Ratio (Staphylococcus aureus [10]): 2; Ratio [11]: 2
Cc1ccc(C2NC(c3ccc(C)cc3)C(C)C(=NOCc3ccccc3)C2C)cc1 (stereo not given) | 25 (≈ 60.6 µM) | 6.25 (≈ 15.1 µM) | 50 (≈ 121 µM) | 12.5 (≈ 30.3 µM) | 12.5 (≈ 30.3 µM) | 50 (≈ 121 µM) | 25 (≈ 60.6 µM) | 50 (≈ 121 µM) | 50 (≈ 121 µM) | 6.25 (≈ 15.1 µM) | Ratio (Escherichia coli [12]): 4; Ratio (Pseudomonas aeruginosa [13]): 4; Ratio (Rhizopus [14]): 2; Ratio (Aspergillus flavus [15]): 2; Ratio (Candida albicans [16]): 2; Ratio (Aspergillus niger [17]): 2; Ratio (Cryptococcus neoformans [18]): 2
CC1C(=NOCc2ccccc2)C(C)C(c2ccccc2)NC1c1ccccc1 (stereo in doubt; 5f1) | – | 200 (≈ 520 µM) | 100 (≈ 260 µM) | 50 (≈ 130 µM) | 100 (≈ 260 µM) | 100 (≈ 260 µM) | 200 (≈ 520 µM) | 100 (≈ 260 µM) | 50 (≈ 130 µM) | 50 (≈ 130 µM) | MIC (Pseudomonas aeruginosa [1]): 50 µg/mL (≈ 130 µM)
c1ccc(CON=C2CC(c3ccccc3)NC(c3ccccc3)C2)cc1 (stereo not given) | 200 (≈ 561 µM) | > 200 | 100 (≈ 281 µM) | > 200 | > 200 | > 200 | 200 (≈ 561 µM) | > 200 | 200 (≈ 561 µM) | 200 (≈ 561 µM) | –
CCC1/C(=N/OCc2ccccc2)CC(c2ccccc2)NC1c1ccccc1 (stereo not given) | 100 (≈ 260 µM) | 25 (≈ 65 µM) | 50 (≈ 130 µM) | 100 (≈ 260 µM) | 50 (≈ 130 µM) | 50 (≈ 130 µM) | > 200 | 200 (≈ 520 µM) | 100 (≈ 260 µM) | 100 (≈ 260 µM) | –
Cc1ccc([C@@H]2C/C(=N/OCc3ccccc3)C[C@H](c3ccc(C)cc3)S2)cc1 | 25 (≈ 62.3 µM) | 12.5 (≈ 31.1 µM) | 25 (≈ 62.3 µM) | 50 (≈ 125 µM) | 50 (≈ 125 µM) | 50 (≈ 125 µM) | 100 (≈ 249 µM) | 200 (≈ 498 µM) | 100 (≈ 249 µM) | 100 (≈ 249 µM) | Ratio (Staphylococcus aureus [10]): 2; Ratio [11]: 2
c1ccc(CO/N=C2\C[C@@H](c3ccccc3)S[C@@H](c3ccccc3)C2)cc1 (relative stereo) | 200 (≈ 535 µM) | > 200 | 100 (≈ 268 µM) | 200 (≈ 535 µM) | 200 (≈ 535 µM) | 100 (≈ 268 µM) | > 200 | > 200 | > 200 | 200 (≈ 535 µM) | –
CC1C(=NOCc2ccccc2)C(C)C(c2ccc(Cl)cc2)OC1c1ccc(Cl)cc1 (stereo in doubt; 7c2) | – | – | – | – | – | – | – | – | – | – | MIC (Pseudomonas aeruginosa [1]): 50 µg/mL (≈ 110 µM); MIC (Staphylococcus aureus [2]): 50 µg/mL (≈ 110 µM); MIC [3]: 100 µg/mL (≈ 220 µM); MIC (Escherichia coli [4]): 50 µg/mL (≈ 110 µM); MIC (Candida albicans [5]): 12.5 µg/mL (≈ 27.5 µM); MIC (Candida): 25 µg/mL (≈ 55 µM); MIC (Rhizopus [6]): 25 µg/mL (≈ 55 µM); MIC (Aspergillus niger [7]): 50 µg/mL (≈ 110 µM); MIC (Aspergillus flavus [8]): 25 µg/mL (≈ 55 µM); MIC (Cryptococcus neoformans [9]): 12.5 µg/mL (≈ 27.5 µM)
COc1ccc(C2NC(c3ccc(OC)cc3)C(C)C(=NOCc3ccccc3)C2C)cc1 (stereo not given) | 50 (≈ 112 µM) | 25 (≈ 56.2 µM) | 25 (≈ 56.2 µM) | 25 (≈ 56.2 µM) | 25 (≈ 56.2 µM) | 25 (≈ 56.2 µM) | 100 (≈ 225 µM) | 12.5 (≈ 28.1 µM) | 12.5 (≈ 28.1 µM) | 6.25 (≈ 14.1 µM) | –
CCOC(=O)C1/C(=N/OCc2ccccc2)CC(c2ccccc2)NC1c1ccccc1 (stereo not given) | 50 (≈ 117 µM) | 200 (≈ 467 µM) | 200 (≈ 467 µM) | 100 (≈ 233 µM) | 200 (≈ 467 µM) | 200 (≈ 467 µM) | 100 (≈ 233 µM) | 100 (≈ 233 µM) | 50 (≈ 117 µM) | 100 (≈ 233 µM) | –
CC1C(=NOCc2ccccc2)C(C)C(c2ccccc2)NC1c1ccccc1 (stereo in doubt; 5f2) | – | – | – | – | – | – | – | – | – | – | MIC (Pseudomonas aeruginosa [1]): 200 µg/mL (≈ 520 µM); MIC (Staphylococcus aureus [2]): 100 µg/mL (≈ 260 µM); MIC [3]: 100 µg/mL (≈ 260 µM); MIC (Escherichia coli [4]): 100 µg/mL (≈ 260 µM); MIC (Candida albicans [5]): 100 µg/mL (≈ 260 µM); MIC (Candida): 100 µg/mL (≈ 260 µM); MIC (Rhizopus [6]): 50 µg/mL (≈ 130 µM); MIC (Aspergillus niger [7]): 100 µg/mL (≈ 260 µM); MIC (Aspergillus flavus [8]): >200 µg/mL; MIC (Cryptococcus neoformans [9]): 200 µg/mL (≈ 520 µM)
COc1ccc([C@@H]2CC(=NOCc3ccccc3)C[C@@H](c3ccc(OC)cc3)S2)cc1 | 25 (≈ 57.7 µM) | 50 (≈ 115 µM) | 50 (≈ 115 µM) | 50 (≈ 115 µM) | 50 (≈ 115 µM) | 25 (≈ 57.7 µM) | 25 (≈ 57.7 µM) | 12.5 (≈ 28.8 µM) | 25 (≈ 57.7 µM) | 25 (≈ 57.7 µM) | –
CCC1/C(=N\OCc2ccccc2)CC(c2ccccc2)OC1c1ccccc1 (stereo not given) | 100 (≈ 259 µM) | 200 (≈ 519 µM) | 100 (≈ 259 µM) | 50 (≈ 130 µM) | 100 (≈ 259 µM) | 200 (≈ 519 µM) | 100 (≈ 259 µM) | 50 (≈ 130 µM) | 100 (≈ 259 µM) | 100 (≈ 259 µM) | –
CC1C(=NOCc2ccccc2)C(C)C(c2ccc(Cl)cc2)NC1c1ccc(Cl)cc1 (stereo not given) | 6.25 (≈ 13.8 µM) | 6.25 (≈ 13.8 µM) | 25 (≈ 55.1 µM) | 12.5 (≈ 27.6 µM) | 50 (≈ 110 µM) | 25 (≈ 55.1 µM) | 25 (≈ 55.1 µM) | 25 (≈ 55.1 µM) | 25 (≈ 55.1 µM) | 25 (≈ 55.1 µM) | Ratio (Staphylococcus aureus [10]): 2; Ratio [11]: 2; Ratio (Escherichia coli [12]): 2; Ratio (Pseudomonas aeruginosa [13]): 4
